Source: patent publication US9107852B2, “Uses of agonists of delta opioid receptor in cosmetic and dermocosmetic field” (Induchem Holding AG, priority 2012, dated 2015)

Tests used:
[1] = test system: opioid receptor delta (DOR); assay: Expression of DOR in epidermis, tissue microarray immunohistochemical labeling; format: cell-based, human; conditions: RHE treated with PMA at 2 μg, compared to non-treated RHE
Procedure: The protein expression of the opioid receptor delta (DOR) was analyzed using a “tissue microarray” (TMA) composed of numerous skin-related cellular models in order to identify the best models for further studies.
Formaldehyde-fixed tissues were dehydrated in multiple baths with increasing concentration of ethanol and then embedded in “Paraplast X-tra” paraffin. The transversal sections were carried out using a microtome (5 μm thickness) and kept at room temperature until staining.
The sections were deparaffinized then the antigenic sites were retrieved using specific buffers (pH6 and pH9). The sections were then washed and incubated with hydrogen peroxide. After an additional washing step, the sections were incubated with the primary antibody (anti-DOR). […] After peroxidase-conjugated streptavidine and peroxidase substrate addition, nuclei were counter-stained with a solution of haematoxylin. The slices were washed in ultra-pure water and mounted in aqueous medium.
Sections were observed using a NIKON E400 microscope. Images were captured with a NIKON DS-Ri1 and processed with NIS-Elements 3.10 software.

[2] = molecular target: T1, delta2 opioid receptor (Mus musculus, UniProt P32300); assay: Agonist effect at the delta2 opioid receptor (DOP), cell impedance; format: cell-based; conditions: percent of control specific agonist response (DPDPE)
T1 construct: host or cells: unnamed cells 'bearing the delta2 opioid receptor'
Procedure: Frozen spinach leaves were thawed and disrupted in fine particles a blender. This juice was further treated with ultrasounds to disrupt cells and proteins were recovered by acidic precipitation. These proteins were then digested by several enzymes, including pepsin and papain. The hydrolysate was purified (ultrafiltration), fractionated and stored before testing. Meanwhile, synthetic peptides were ordered from a manufacturer. The peptides and the hydrolysates were tested on cells bearing the delta2 opioid receptor and cell impedance was measured to evaluate the binding activity of the tested compounds (Law and Loh, 1993).
The EC50 values (concentration producing a half-maximal specific response) and IC50 values (concentration causing a half-maximal inhibition of the control specific agonist response) were determined by non-linear regression analysis of the concentration-response curves generated with mean replicate values using Hill equation curve fitting (Y=D+[(A D)/(1+(C/C50)nH)], where Y=specific response, D=minimum specific response, A=maximum specific response, C=compound concentration, and C50=EC50 or IC50, and nH=slope factor).

[3] = test system: opioid receptor delta (DOR); assay: Scoring of DOR1 expression in RHE stimulated with cytokines; format: cell-based, human; conditions: JAK inhibitor I tested at 10 μM
Procedure: In the present study, the effects of a peptide (YPLDLF, SEQ ID No 1) on the expression of opioid receptor delta (DOR) were researched on a reconstructed human epidermis (RHE) model under basal or stimulated conditions. More precisely, the RHE were stimulated by a mix of cytokines (IL-17+OSM+TNF-α) able to induce a strong inflammatory profile and a psoriatic phenotype in keratinocytes.
Reconstructed human epidermis (RHE) of 11 days old was prepared according to a derived method described by Poumay et al. (2004). These RHE were cultivated at 37° C. and 5% of CO2 in a specific maintenance medium.
The RHE treated under basal conditions were placed in assay medium containing or not (non-stimulated control) the peptide solutions and incubated for 54 hours. For inflammatory conditions, the RHE were placed in assay medium containing or not (stimulated control) the peptide solutions or the reference […] at 10 μM) and pre-incubated for 6 hours. The RHE were then stimulated with a mix of cytokines (IL-17+OSM+TNF-α at 3 ng/ml) and incubated for 48 hours. All experimental conditions were performed in n=3.
At the end of incubation, the supernatants were collected and the RHE were washed in phosphate buffered saline solution (PBS) for immunohistofluorescence analysis. […]

T1 sequence (P32300 whole entry): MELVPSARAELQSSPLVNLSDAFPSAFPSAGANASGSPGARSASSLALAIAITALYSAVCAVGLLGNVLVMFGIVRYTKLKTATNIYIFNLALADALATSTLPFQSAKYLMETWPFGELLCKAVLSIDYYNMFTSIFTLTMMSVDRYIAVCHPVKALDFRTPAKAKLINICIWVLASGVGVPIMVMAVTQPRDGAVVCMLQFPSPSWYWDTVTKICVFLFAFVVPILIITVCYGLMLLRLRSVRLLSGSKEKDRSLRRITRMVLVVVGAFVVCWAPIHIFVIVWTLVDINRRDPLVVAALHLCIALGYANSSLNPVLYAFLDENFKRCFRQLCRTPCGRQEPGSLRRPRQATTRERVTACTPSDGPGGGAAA

CCCCCCCCCCCCCC(=O)O[C@@H]1[C@@H](C)[C@@]2(O)[C@@H](C=C(CO)C[C@]3(O)C(=O)C(C)=C[C@@H]23)[C@@H]2C(C)(C)[C@]12OC(C)=O [PMA, Phorbol myristate acetate]
expression of DOR [1]: DOR was decreased after Phorbol myristate

D-Penicillamine(2,5)-enkephalin [DPDPE, reference compound]
A (Hill curve fit parameter) [2]: 0.0 | D (Hill curve fit parameter) [2]: 95.8

JAK inhibitor I [reference compound]
inhibitory effect of the cytokine mix on OPRD1 expression [3]: reversed
